Assay results taken from patent US20060003364A1, “GLUT1 transporters expressed in cancer cells” (XenoPort, Inc., priority 2004, published 2006).

Target: T1, GLUT1 (Homo sapiens, UniProt P11166)
T1 sequence (P11166 1-492): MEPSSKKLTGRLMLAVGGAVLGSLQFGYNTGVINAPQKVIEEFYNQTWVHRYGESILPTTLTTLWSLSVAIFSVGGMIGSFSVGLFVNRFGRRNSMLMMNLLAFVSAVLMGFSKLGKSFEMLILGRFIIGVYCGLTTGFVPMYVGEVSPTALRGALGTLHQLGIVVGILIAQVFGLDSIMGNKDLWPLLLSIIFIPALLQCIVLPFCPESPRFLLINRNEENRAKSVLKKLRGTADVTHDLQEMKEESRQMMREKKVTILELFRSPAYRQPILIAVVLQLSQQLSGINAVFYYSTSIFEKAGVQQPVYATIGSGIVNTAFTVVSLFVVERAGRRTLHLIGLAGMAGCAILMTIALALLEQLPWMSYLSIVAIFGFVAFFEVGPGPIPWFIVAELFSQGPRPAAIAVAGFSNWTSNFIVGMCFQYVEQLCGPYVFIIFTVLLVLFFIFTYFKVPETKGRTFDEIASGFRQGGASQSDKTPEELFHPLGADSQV
Test: not given
Conditions: cited from earlier work

Q: With `N[C@H]1C(O)O[C@H](CO)[C@@H](O)[C@@H]1O` (stereo partly drawn) [Glucosamine] as the compound, how does the “Reported Affinity for GLUT1” value read?
A: 9 mM

Q: With “(S)-methoxy-a-methyl-2-napthalene acetic acid amido galacto pyranose” as the compound, how does the “Reported Affinity for GLUT1” value read?
A: 1 mM

Q: With `O=C1O[C@H]([C@@H](O)CO)C(=O)C1=O` [Dehydroascorbic Acid] as the compound, how does the “Reported Affinity for GLUT1” value read?
A: 0.8 mM

Q: For Fluorodeoxyglucose, which “Reported Affinity for GLUT1” value is on record?
A: 4 mM

Q: With `O=C[C@H](O)[C@@H](O)[C@@H](O)[C@H](O)CO` [Galactose] as the compound, how does the “Reported Affinity for GLUT1” value read?
A: 4 mM

Target: T1, GLUT1
Test: Radiolabel glucose uptake in Xenopus oocytes expressing GLUT1
Assay type: cell-based
Parameters: expressed in transfected cells; host or cells: Xenopus oocytes (cRNA injected)
Conditions: oocytes expressing GLUT1 vs noninjected controls; 3 minutes, ND96 buffer
Protocol: To assess transport function of a specific transporter protein, it can be desirable to clone the cDNA and express the protein in cells that have low endogenous transport activity. Human GLUT1 was cloned by PCR, fully sequenced, and subcloned into plasmids that can be used for expression in mammalian cells or Xenopus oocytes. […] For expression in Xenopus oocytes, in vitro GLUT1 cRNA was prepared and injected into defoliculated oocytes.
Oocytes expressing GLUT1 or control oocytes not expressing GLUT1 were incubated in an oocyte ringers (ND96) buffer ([…], 10 mM HemiNa HEPES, 2 mM KCl, 1 mM MgCl, 1.8 mM CaCl2) containing 0.5% bovine serum albumin and 3H-glucose (10^6 CPM/ml) for 3 minutes. Oocytes were washed and uptake of radiolabel quantified by scintillation counting.

Q: Which 3H-glucose uptake does the source give for `O=C[C@H](O)[C@@H](O)[C@H](O)[C@H](O)CO` [^3H-glucose] here?
A: higher levels of ^3H-glucose uptake than noninjected controls
